Results from US8431541B2, “Alpha-amylase inhibitors: the montbretins and uses thereof” (The University of British Columbia, priority 2007, dated 2013).

Assays:
[1] = target: T1, human pancreatic α-amylase (HPA) (Homo sapiens, UniProt P04746); test: Kinetic analysis of HPA inhibition; type: biochemical
T1 sequence (P04746 16-511): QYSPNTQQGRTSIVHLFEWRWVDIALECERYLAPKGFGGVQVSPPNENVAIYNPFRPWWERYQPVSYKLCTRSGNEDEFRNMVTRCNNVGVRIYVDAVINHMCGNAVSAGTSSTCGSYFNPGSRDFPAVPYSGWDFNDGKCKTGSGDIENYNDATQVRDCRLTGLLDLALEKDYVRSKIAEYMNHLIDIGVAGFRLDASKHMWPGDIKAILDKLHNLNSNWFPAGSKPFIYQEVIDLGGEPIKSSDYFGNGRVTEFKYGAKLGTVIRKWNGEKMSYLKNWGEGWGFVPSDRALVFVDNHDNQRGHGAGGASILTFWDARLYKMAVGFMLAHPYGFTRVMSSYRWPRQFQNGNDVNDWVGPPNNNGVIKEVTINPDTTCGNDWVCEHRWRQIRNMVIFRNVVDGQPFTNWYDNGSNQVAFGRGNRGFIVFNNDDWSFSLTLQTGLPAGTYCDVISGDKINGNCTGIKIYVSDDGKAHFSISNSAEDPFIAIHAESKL

[2] = target: β-galactosidase (E. coli) (Escherichia coli, UniProt P00722); test: Glycosidase specificity: β-galactosidase; type: biochemical; conditions: at 0.1 μM Montbretin A; read-out: RA (%), Residual Enzyme Activity
[3] = target: α-galactosidase (Green Coffee Beans) (Coffea arabica, UniProt Q42656); test: Glycosidase specificity: α-galactosidase; type: biochemical; conditions: at 0.1 μM Montbretin A; read-out: RA (%), Residual Enzyme Activity
[4] = test system: control and STZ-diabetic rats; test: Acute starch tolerance test; type: in vivo, rat
Protocol: Twenty-four animals were obtained at 200-250 g of body weight and randomly divided into control and diabetic groups. Diabetes was induced by a single intravenous tail vein injection of streptozotocin 60 mg/kg in 0.9% normal saline. Control rats received normal saline injections only. Animals were subsequently divided into acarbose untreated and treated. […] Starch was obtained from Fisher Scientific and a 17.5% suspension was made in distilled water. The dose of starch given was […].
The animals were fasted overnight. A basal blood sample was collected (50 μl volume) and then at 30, 60, 90 and 120 minutes post drug administration. Starch and starch+acarbose was administered by oral gavage. Blood was centrifuged at 10,000 g×25 minutes and plasma collected for determination of glucose levels using a Beckman Glucose Analyzer II™. There was no difference in body weight among the groups. There was a significant increase in plasma glucose 30 and 60 minutes following starch administration in the diabetic untreated group only.
The twenty-four animals from Example 6 were used following a wash out period of one week. Animals were divided into montbretin A untreated and treated. The four treatment groups were: control, n=6, control+montbretin A, n=6, diabetic, n=6 and diabetic+montbretin A, n=6. The procedures used in Example 6 were employed. Montbretin A was dissolved in distilled water at a concentration of 10 mg/ml and given at a volume of 1 ml/kg. The dose of montbretin A given was 10 mg/kg. There was no difference in body weight among the groups. There was a significant increase in plasma glucose levels in the diabetic untreated group at 30 and 60 minutes following starch administration.
A study was done to determine the effect of various amounts of montbretin A and montbretin extracts on plasma glucose levels in response to a starch challenge in STZ-diabetic rats. Diabetic animals used in the previous Examples were used following a wash out period of one week. The six experimental groups were: diabetic (D, n=3) diabetic+montbretin A (5 mg/kg), (DT5, n=3), diabetic+montbretin A (1 mg/kg), (DT1, n=3), diabetic+montbretin A (0.5 mg/kg), (DT0.5, n=3), diabetic+Crocosmia corm methanol extract (5 mg/kg), (DM, n=3) and diabetic+Crocosmia corm ethanol extract (5 mg/kg), (DE, n=2).
Montbretin A was dissolved in distilled water at a concentration of 5, 1 or 0.5 mg/ml and given at a volume of 1 ml/kg. The methanol extract contained montbretin A at a concentration of 3.2 mg/ml and ethanol extract at a concentration of 1.6 mg/ml. These extracts were dried and resuspended in distilled water. There was no difference in body weight among the groups. […] Diarrhea occurred in 2 out 3 animals given the methanol extract and in 1 out of 2 animals given the ethanol extract. […]

male Wistar rats = test: Taste aversion study, drinking water; type: in vivo, rat; conditions: approximately 10 mg/kg/day in drinking water
Protocol: A study was done to determine if there is aversion by animals to the taste of montbretin A dissolved in drinking water. Six (6) male Wistar rats weighing between 500-650 g were housed 2 rats per cage. Three hundred grams (300 g) of standard rat chow (Purnia) was placed in the food hopper of each cage daily. Food consumption per cage per day was determined every 24 hours for 3 days. A fluid volume of 900 ml of drinking water was placed on each cage daily. Fluid consumption per cage per day was determined every 24 hours for 3 days. Body weights of each animal were measured every 24 hours.
Based on the preliminary drinking water values obtained, montbretin A was dissolved in the drinking water so as to deliver a dose of 10 mg/kg/day. Body weight and food consumption measurements were done as described above. A fluid volume of 250 ml of montbretin A solution at a concentration of 0.09 mg/ml was placed on each cage daily. Fluid consumption was measured every 24 hours for 3 days.
The food and fluid consumption and body weights were analyzed. The dose of montbretin A was determined based on weight and consumption values. There was no effect of montbretin A dissolved in the drinking water on body weight, fluid intake or food intake and a dose of approximately 10 mg/kg was achieved.

Chain of β-galactosidase (E. coli) (P00722 2-1024 limits assumed): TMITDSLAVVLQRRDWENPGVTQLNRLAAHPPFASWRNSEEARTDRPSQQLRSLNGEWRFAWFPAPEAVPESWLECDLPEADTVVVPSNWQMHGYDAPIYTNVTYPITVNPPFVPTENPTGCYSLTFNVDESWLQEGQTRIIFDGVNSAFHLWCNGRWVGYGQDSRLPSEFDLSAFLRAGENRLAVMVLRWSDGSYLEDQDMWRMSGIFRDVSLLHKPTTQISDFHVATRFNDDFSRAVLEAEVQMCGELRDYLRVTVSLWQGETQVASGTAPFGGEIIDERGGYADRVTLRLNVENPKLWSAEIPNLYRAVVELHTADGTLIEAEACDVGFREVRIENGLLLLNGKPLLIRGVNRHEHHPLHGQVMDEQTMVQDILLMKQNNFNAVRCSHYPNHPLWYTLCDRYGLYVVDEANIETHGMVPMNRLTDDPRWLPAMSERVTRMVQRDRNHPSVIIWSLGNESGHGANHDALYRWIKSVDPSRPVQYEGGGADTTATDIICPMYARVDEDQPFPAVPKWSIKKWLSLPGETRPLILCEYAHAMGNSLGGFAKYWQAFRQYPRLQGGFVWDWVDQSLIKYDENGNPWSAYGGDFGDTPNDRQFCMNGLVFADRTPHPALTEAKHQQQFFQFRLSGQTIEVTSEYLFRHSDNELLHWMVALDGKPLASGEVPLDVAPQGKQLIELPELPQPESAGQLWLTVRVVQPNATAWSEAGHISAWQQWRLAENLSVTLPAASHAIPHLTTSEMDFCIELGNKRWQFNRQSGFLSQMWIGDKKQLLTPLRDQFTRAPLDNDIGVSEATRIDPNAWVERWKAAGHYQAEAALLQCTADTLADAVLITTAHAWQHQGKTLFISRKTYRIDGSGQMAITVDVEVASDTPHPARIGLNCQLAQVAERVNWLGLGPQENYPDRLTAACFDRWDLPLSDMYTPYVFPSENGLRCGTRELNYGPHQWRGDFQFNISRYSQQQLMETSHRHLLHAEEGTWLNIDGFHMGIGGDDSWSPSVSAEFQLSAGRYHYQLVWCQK
Chain of α-galactosidase (Green Coffee Beans) (Q42656 16-378): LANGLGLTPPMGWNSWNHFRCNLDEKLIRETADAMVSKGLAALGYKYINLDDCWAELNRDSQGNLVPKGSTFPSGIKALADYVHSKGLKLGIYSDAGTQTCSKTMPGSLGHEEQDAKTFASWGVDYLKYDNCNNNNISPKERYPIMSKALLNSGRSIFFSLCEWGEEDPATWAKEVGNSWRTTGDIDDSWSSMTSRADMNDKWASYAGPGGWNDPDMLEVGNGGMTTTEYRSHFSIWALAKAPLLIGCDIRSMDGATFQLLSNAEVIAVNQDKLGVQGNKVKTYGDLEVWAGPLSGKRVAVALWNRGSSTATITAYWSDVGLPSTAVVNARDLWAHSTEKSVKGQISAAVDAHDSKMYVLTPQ

CC1O[C@@H](O[C@@H]2CO[C@@H](Oc3c(O)cc(-c4oc5cc(O)cc(O)c5c(=O)c4O[C@@H]4OC(C)[C@H](O)[C@H](O)C4O[C@@H]4OC(COC(=O)/C=C/c5ccc(O)c(O)c5)[C@@H](O)[C@@H](O)C4O[C@@H]4OC(CO)[C@@H](O)[C@@H](O)C4O)cc3O)C(O)[C@@H]2O)C(O)[C@@H](O)[C@H]1O (stereo partly shown) [Montbretin A, montbretin A]
mode of inhibition of HPA ([1]; double reciprocal plot): competitive | effect of calcium on HPA inhibition ([1]; presence of 1 mM calcium chloride): no change in inhibition | effect of DTT on HPA inhibition ([1]; presence vs absence of 5 mM dithiothreitol): No effect | Ki ([1]; varied substrate and inhibitor concentrations, GraFit): 8.1 ± 0.5 nM | remaining activity at 0.1 µM [2]: 98% | remaining activity at 0.1 µM [3]: 100% | increase in plasma glucose following starch administration ([4]; 5 mg/kg, acute, STZ-diabetic rats): prevented the increase in plasma glucose | increase in plasma glucose following a starch challenge ([4]; 10 mg/kg, oral gavage, acute, control and STZ-diabetic rats): effective in preventing the increase in plasma glucose | effect on plasma glucose, area under the curve ([4]; lower doses (1 mg/kg, 0.5 mg/kg), STZ-diabetic rats): not particularly significant | effect on body weight (male Wistar rats; 3 days): no effect | effect on fluid intake (male Wistar rats; 3 days): no effect | effect on food intake (male Wistar rats; 3 days): no effect | side effects (male Wistar rats; duration of the trial): no overt indications of side effects
